Measured values: US20160287589A1, “SUBSTITUTED-IMIDAZOPYRIDAZINES” (BAYER PHARMA AKTIENGESELLSCHAFT, priority 2013, published 2016)

Columns and labels:
MKNK1 [1] = molecular target: T1, MKNK1 (Homo sapiens, UniProt Q9BUB5, T385D); test: MKNK1 kinase high ATP assay (TR-FRET-based); type: biochemical; details: Table 2c; 2 mM ATP, 15 min preincubation
T1 construct: GST (N); purchased Carna Biosciences 02-145; host or cells: insect cells (baculovirus expression system)
Method in brief: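 TR-FRET read-out (anti-phospho-S6 Ser236 antibody, Eu/XL665) of biotin-peptide phosphorylation (0.06 μM) at high ATP (2 mM final). Enzyme was GST-MKNK1 full length, T344D, pre-bound to compound for 15 min before a 30 min reaction at 22 °C, pH 7.5. Inhibition scaled between no-inhibitor (0%) and no-enzyme (100%) wells.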

MKNK1 [2] = molecular target: T1, MKNK1; test: MKNK1 kinase assay (MKNK1 TR-FRET assay); type: biochemical; details: Table 1c; 10 μM ATP, 15 min preincubation

T1 sequence (Q9BUB5 1-424 isoform Q9BUB5-2 T344D): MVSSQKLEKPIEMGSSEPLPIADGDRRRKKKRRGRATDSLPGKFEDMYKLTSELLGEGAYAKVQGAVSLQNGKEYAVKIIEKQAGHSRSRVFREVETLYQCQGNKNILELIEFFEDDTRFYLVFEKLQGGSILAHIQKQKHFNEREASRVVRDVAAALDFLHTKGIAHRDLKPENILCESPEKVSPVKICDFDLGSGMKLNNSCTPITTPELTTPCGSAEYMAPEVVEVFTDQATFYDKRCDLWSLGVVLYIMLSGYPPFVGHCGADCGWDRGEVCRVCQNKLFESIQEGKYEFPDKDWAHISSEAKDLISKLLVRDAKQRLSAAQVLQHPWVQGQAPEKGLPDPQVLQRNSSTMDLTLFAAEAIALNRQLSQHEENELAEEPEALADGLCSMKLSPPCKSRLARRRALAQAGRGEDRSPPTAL

IC50 (MKNK1 [1])	IC50 (MKNK1 [2])	SMILES
12.6 nM	4.3 nM	CC(C)(C)N1CCN(c2nccc3oc(-c4cnc5ccc(OC[C@H]6CCC(=O)N6)nn45)cc23)CC1 [III-63, (5R)-5-[({3-[4-(4-tert-Butylpiperazin-1-yl)furo[3,2-c]pyridin-2-yl]imidazo-[1,2-b]pyridazin-6-yl}oxy)methyl]pyrrolidin-2-one]
0.1 nM	0.4 nM	CN(C)[C@@H]1CCN(c2nccc3oc(-c4cnc5ccc(OC[C@H]6CCC(=O)N6)nn45)cc23)C1 [III-64, (5R)-5-{[(3-{4-[(3R)-3-(Dimethylamino)pyrrolidin-1-yl]furo[3,2-c]pyridin-2-yl}imidazo[1,2-b]pyridazin-6-yl)oxy]methyl}pyrrolidin-2-one]
8.5 nM	4.2 nM	CC(C)(C)[Si](C)(C)OC[C@H]1CCCN1c1nccc2oc(-c3cnc4ccc(OC[C@H]5CCC(=O)N5)nn34)cc12 [III-66, (5R)-5-{[(3-{4-[(2R)-2-({[tert-Butyl(dimethyl)silyl]oxy}methyl)pyrrolidin-1-yl]furo[3,2-c]pyridin-2-yl}imidazo[1,2-b]pyridazin-6-yl)oxy]methyl}pyrrolidin-2-one]
11 nM	10.7 nM	O=C1CC[C@H](COc2ccc3ncc(-c4cc5c(N6CCC[C@@H]6CO)nccc5o4)n3n2)N1 [III-67, (5R)-5-{[(3-{4-[(2R)-2-(Hydroxymethyl)pyrrolidin-1-yl]furo[3,2-c]pyridin-2-yl}imidazo[1,2-b]pyridazin-6-yl)oxy]methyl}pyrrolidin-2-one]
0.7 nM	0.5 nM	O=C1CC[C@H](COc2ccc3ncc(-c4cc5c(N6CCOCC6)nccc5o4)n3n2)N1 [III-68, (5R)-5-[({3-[4-(Morpholin-4-yl)furo[3,2-c]pyridin-2-yl]imidazo[1,2-b]pyridazin-6-yl}oxy)methyl]pyrrolidin-2-one]
0.1 nM	0.4 nM	CCN(CCOC)c1nccc2oc(-c3cnc4ccc(OC[C@H]5CCC(=O)N5)nn34)cc12 [III-69, (5R)-5-{[(3-{4-[Ethyl(2-methoxyethyl)amino]furo[3,2-c]pyridin-2-yl}imidazo[1,2-b]pyridazin-6-yl)oxy]methyl}pyrrolidin-2-one]
13.5 nM	4.8 nM	CC(C)(C)OC(=O)N1CCN(c2nccc3oc(-c4cnc5ccc(OC[C@H]6CCC(=O)N6)nn45)cc23)CC1 [III-70, tert-Butyl 4-[2-(6-{[(2R)-5-oxopyrrolidin-2-yl]methoxy}imidazo[1,2-b]pyridazin-3-yl)furo[3,2-c]pyridin-4-yl]piperazine-1-carboxylate]
1.4 nM	2 nM	O=C1CC[C@H](COc2ccc3ncc(-c4cc5c(N6CCNCC6)nccc5o4)n3n2)N1 [III-71, (5R)-5-[({3-[4-(Piperazin-1-yl)furo[3,2-c]pyridin-2-yl]imidazo[1,2-b]pyridazin-6-yl}oxy)methyl]pyrrolidin-2-one]
2 nM	1 nM	C[C@@H]1CN(c2nccc3oc(-c4cnc5ccc(OC[C@H]6CCC(=O)N6)nn45)cc23)C[C@H](C)O1 [III-72, (5R)-5-{[(3-{4-[(2R,6S)-2,6-Dimethylmorpholin-4-yl]furo[3,2-c]pyridin-2-yl}imidazo[1,2-b]pyridazin-6-yl)oxy]methyl}pyrrolidin-2-one]
0.8 nM	0.6 nM	CN(CCCO)c1nccc2oc(-c3cnc4ccc(OC[C@H]5CCC(=O)N5)nn34)cc12 [III-73, (5R)-5-{[(3-{4-[(3-Hydroxypropyl)(methyl)amino]furo[3,2-c]pyridin-2-yl}imidazo[1,2-b]pyridazin-6-yl)oxy]methyl}pyrrolidin-2-one]
1.5 nM	1 nM	CN(C)C1CCN(c2nccc3oc(-c4cnc5ccc(OC[C@H]6CCC(=O)N6)nn45)cc23)CC1 [III-74, (5R)-5-{[(3-{4-[4-(Dimethylamino)piperidin-1-yl]furo[3,2-c]pyridin-2-yl}imidazo[1,2-b]pyridazin-6-yl)oxy]methyl}pyrrolidin-2-one]
1.7 nM	0.8 nM	CN(C)[C@H]1CCN(c2nccc3oc(-c4cnc5ccc(OC[C@H]6CCC(=O)N6)nn45)cc23)C1 [III-75, (5R)-5-{[(3-{4-[(3S)-3-(Dimethylamino)pyrrolidin-1-yl]furo[3,2-c]pyridin-2-yl}imidazo[1,2-b]pyridazin-6-yl)oxy]methyl}pyrrolidin-2-one]
6 nM	3.5 nM	O=C1CC[C@H](COc2ccc3ncc(-c4cc5c(N6CCN(c7ccccc7)CC6)nccc5o4)n3n2)N1 [III-76, (5R)-5-[({3-[4-(4-Phenylpiperazin-1-yl)furo[3,2-c]pyridin-2-yl]imidazo[1,2-b]pyridazin-6-yl}oxy)methyl]pyrrolidin-2-one]
1.1 nM	0.7 nM	O=C1CC[C@H](COc2ccc3ncc(-c4cc5c(N6CCC(CO)CC6)nccc5o4)n3n2)N1 [III-77, (5R)-5-{[(3-{4-[4-(Hydroxymethyl)piperidin-1-yl]furo[3,2-c]pyridin-2-yl}imidazo[1,2-b]pyridazin-6-yl)oxy]methyl}pyrrolidin-2-one]
1.2 nM	0.2 nM	COC[C@H]1CCCN1c1nccc2oc(-c3cnc4ccc(OC[C@H]5CCC(=O)N5)nn34)cc12 [III-78, (5R)-5-{[(3-{4-[(2R)-2-(Methoxymethyl)pyrrolidin-1-yl]furo[3,2-c]pyridin-2-yl}imidazo[1,2-b]pyridazin-6-yl)oxy]methyl}pyrrolidin-2-one]
0.5 nM	0.3 nM	COCCN(C)c1nccc2oc(-c3cnc4ccc(OC[C@H]5CCC(=O)N5)nn34)cc12 [III-81, (5R)-5-{[(3-{4-[(2-Methoxyethyl)(methyl)amino]furo[3,2-c]pyridin-2-yl}imidazo[1,2-b]pyridazin-6-yl)oxy]methyl}pyrrolidin-2-one]
0.3 nM	0.4 nM	CCCN(CCOC)c1nccc2oc(-c3cnc4ccc(OC[C@H]5CCC(=O)N5)nn34)cc12 [III-82, (5R)-5-{[(3-{4-[(2-Methoxyethyl)(propyl)amino]furo[3,2-c]pyridin-2-yl}imidazo[1,2-b]pyridazin-6-yl)oxy]methyl}pyrrolidin-2-one]
19.1 nM	11.6 nM	COC[C@@H]1CCCN1c1nccc2oc(-c3cnc4ccc(OC[C@H]5CCC(=O)N5)nn34)cc12 [III-83, (5R)-5-{[(3-{4-[(2S)-2-(Methoxymethyl)pyrrolidin-1-yl]furo[3,2-c]pyridin-2-yl}imidazo[1,2-b]pyridazin-6-yl)oxy]methyl}pyrrolidin-2-one]
5.2 nM	4.8 nM	C[C@@H]1COCCN1c1nccc2oc(-c3cnc4ccc(OC[C@@H]5CCC(=O)N5)nn34)cc12 [III-85, (5S)-5-{[(3-{4-[(3R)-3-Methylmorpholin-4-yl]furo[3,2-c]pyridin-2-yl}imidazo[1,2-b]pyridazin-6-yl)oxy]methyl}pyrrolidin-2-one]

SMILES	IC50 (MKNK1 [1])	IC50 (MKNK1 [2])
CN1CCC(N(C)c2nccc3oc(-c4cnc5ccc(OC[C@H]6CCC(=O)N6)nn45)cc23)CC1 [III-65, (5R)-5-{[(3-{4-[Methyl(1-methylpiperidin-4-yl)amino]furo[3,2-c]pyridin-2-yl}imidazo[1,2-b]pyridazin-6-yl)oxy]methyl}pyrrolidin-2-one]	19.9 nM	11.6 nM
CCN(CCOC(C)(C)C)c1nccc2oc(-c3cnc4ccc(OC[C@H]5CCC(=O)N5)nn34)cc12 [III-80, (5R)-5-{[(3-{4-[(2-tert-Butoxyethyl)(ethyl)amino]furo[3,2-c]pyridin-2-yl}imidazo[1,2-b]pyridazin-6-yl)oxy]methyl}pyrrolidin-2-one]	0.2 nM	0.4 nM
